Measured values from ChEMBL document CHEMBL1201862, “PubChem BioAssay data set” (2004).
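Dose response: 5 concentrations. Exposure: 48 h. Format: 96-well plates. Endpoint: linear interpolation; highest concentration if not reached. The concentration for 50% growth inhibition is given as GI50.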 Calls of active or inactive are those of the source. Rule as the data show it: active = GI50 up to about 1.1 µM and inactive = higher.

What was measured:
Test in all cases: inhibition of tumour cell growth, NCI panel, 48 h
DMS-114 = tested on: DMS-114
HCC 2998 = tested on: HCC 2998
SK-MEL-2 = tested on: SK-MEL-2
RXF 393 = tested on: RXF 393
HL-60 = tested on: HL-60
OVCAR-4 = tested on: OVCAR-4
A498 = tested on: A498
TK-10 = tested on: TK-10
EKVX = tested on: EKVX
786-0 = tested on: 786-0
COLO 205 = tested on: COLO 205
A549 = tested on: A549
IGROV-1 = tested on: IGROV-1
CAKI-1 = tested on: CAKI-1
M14 = tested on: M14
U-251 = tested on: U-251
NCI/ADR-RES = tested on: NCI/ADR-RES
MDA-MB-435 = tested on: MDA-MB-435
BT-549 = tested on: BT-549
T47D = tested on: T47D

SMILES	GI50 (DMS-114)	GI50 (HCC 2998)	GI50 (SK-MEL-2)	GI50 (RXF 393)	GI50 (HL-60)	GI50 (OVCAR-4)	GI50 (A498)	GI50 (TK-10)	GI50 (EKVX)	GI50 (786-0)	GI50 (COLO 205)	GI50 (A549)	GI50 (IGROV-1)	GI50 (CAKI-1)	GI50 (M14)	GI50 (U-251)	GI50 (NCI/ADR-RES)	GI50 (MDA-MB-435)	GI50 (BT-549)	GI50 (T47D)
CCC(=O)CCC1=Nc2nnc(CCCCc3nnc4n3C(=O)C(CCC(=O)CC)=N4)n2C1=O	> 100 µM (inactive)	> 100 µM (inactive)	> 100 µM (inactive)	> 100 µM (inactive)	> 100 µM (inactive)	> 100 µM (inactive)	> 100 µM (inactive)	> 100 µM (inactive)	> 100 µM (inactive)	> 100 µM (inactive)	> 100 µM (inactive)	> 100 µM (inactive)	> 100 µM (inactive)	> 100 µM (inactive)	> 100 µM (inactive)	–	–	–	–	–
C#CC[N+](CCO)(CCO)CCCCCCCCCCCCCCCCCC	10.3 µM (inactive)	11.5 µM (inactive)	16.4 µM (inactive)	2.48 µM (inactive)	1.55 µM (inactive)	10.5 µM (inactive)	17.2 µM (inactive)	–	21.7 µM (inactive)	–	11.2 µM (inactive)	15.7 µM (inactive)	2.18 µM (inactive)	5.87 µM (inactive)	–	6.47 µM (inactive)	20.2 µM (inactive)	–	–	–
COc1cc2ccc(/C(C)=N/OC(C)=O)cc2cc1OC	> 100 µM (inactive)	–	81.3 µM (inactive)	25.4 µM (inactive)	–	> 100 µM (inactive)	22.8 µM (inactive)	44.8 µM (inactive)	3.58 µM (inactive)	> 100 µM (inactive)	> 100 µM (inactive)	> 100 µM (inactive)	> 100 µM (inactive)	–	> 100 µM (inactive)	86.9 µM (inactive)	–	–	–	–
CC(C)(C)OC(=O)NC1CCC(C(C)(C)C)CC1 (stereo not drawn)	34 µM (inactive)	> 87.1 µM (inactive)	23.3 µM (inactive)	31.3 µM (inactive)	15.2 µM (inactive)	> 74.3 µM (inactive)	> 100 µM (inactive)	–	> 64.1 µM (inactive)	–	> 65.5 µM (inactive)	43.8 µM (inactive)	> 100 µM (inactive)	–	–	38.4 µM (inactive)	99.1 µM (inactive)	–	–	–
[O-][S+]1[C@H](c2ccccc2)c2c(-c3ccccc3)sc(-c3ccccc3)c2[C@@H]1c1ccccc1 (stereo partly drawn)	10.2 µM (inactive)	> 100 µM (inactive)	32.7 µM (inactive)	23.1 µM (inactive)	4.31 µM (inactive)	8.49 µM (inactive)	–	9.1 µM (inactive)	0.286 µM (active)	29.3 µM (inactive)	23.1 µM (inactive)	10.8 µM (inactive)	> 100 µM (inactive)	15.2 µM (inactive)	85.9 µM (inactive)	9.44 µM (inactive)	–	–	–	–
CCOC(=O)C1=C(O)C(=O)c2ccoc2C1=O	> 100 µM (inactive)	> 100 µM (inactive)	> 100 µM (inactive)	> 100 µM (inactive)	> 100 µM (inactive)	> 100 µM (inactive)	> 100 µM (inactive)	> 100 µM (inactive)	> 100 µM (inactive)	> 100 µM (inactive)	> 100 µM (inactive)	> 100 µM (inactive)	> 100 µM (inactive)	> 100 µM (inactive)	> 100 µM (inactive)	> 100 µM (inactive)	–	–	–	–
COc1ccc(/C=C2\CCC(CN3CCOCC3)C2=O)cc1 (stereo not drawn)	2.72 µM (inactive)	5.48 µM (inactive)	3.78 µM (inactive)	0.942 µM (active)	0.762 µM (active)	5.96 µM (inactive)	9.44 µM (inactive)	3.57 µM (inactive)	7.57 µM (inactive)	1.65 µM (inactive)	2.17 µM (inactive)	9.57 µM (inactive)	4 µM (inactive)	1.99 µM (inactive)	2.16 µM (inactive)	17.3 µM (inactive)	2.62 µM (inactive)	2.05 µM (inactive)	2.25 µM (inactive)	–
C[N+](C)(C)CC(=O)N/N=c1\cc(C(=O)Nc2ccc(N=O)cc2C#N)oc2cc(O)ccc12	> 100 µM (inactive)	> 100 µM (inactive)	> 100 µM (inactive)	> 100 µM (inactive)	> 100 µM (inactive)	> 100 µM (inactive)	> 100 µM (inactive)	> 100 µM (inactive)	> 100 µM (inactive)	> 100 µM (inactive)	> 100 µM (inactive)	> 100 µM (inactive)	> 100 µM (inactive)	> 100 µM (inactive)	> 100 µM (inactive)	> 100 µM (inactive)	–	–	–	–
CC(=O)OCC1OC(n2c(=S)n(-c3ccccc3)c(=O)c3cc(Br)ccc32)C(OC(C)=O)C1OC(C)=O (stereo not drawn)	99.8 µM (inactive)	> 100 µM (inactive)	> 100 µM (inactive)	> 100 µM (inactive)	–	> 100 µM (inactive)	> 100 µM (inactive)	–	> 100 µM (inactive)	> 100 µM (inactive)	> 100 µM (inactive)	> 100 µM (inactive)	> 100 µM (inactive)	11.6 µM (inactive)	> 100 µM (inactive)	> 100 µM (inactive)	–	–	–	–
C=CCC1C(=O)C(C(=O)OC)N2CCc3c([nH]c4ccccc34)C12 (stereo not drawn)	> 100 µM (inactive)	> 100 µM (inactive)	> 100 µM (inactive)	> 100 µM (inactive)	> 100 µM (inactive)	> 100 µM (inactive)	> 100 µM (inactive)	> 100 µM (inactive)	> 100 µM (inactive)	> 100 µM (inactive)	> 100 µM (inactive)	> 100 µM (inactive)	> 100 µM (inactive)	> 100 µM (inactive)	> 100 µM (inactive)	> 100 µM (inactive)	–	–	–	–
NC(=O)C12CC3CC(CC(F)(C3)C1)C2	> 100 µM (inactive)	> 100 µM (inactive)	> 100 µM (inactive)	> 100 µM (inactive)	> 100 µM (inactive)	–	> 100 µM (inactive)	> 100 µM (inactive)	> 100 µM (inactive)	> 100 µM (inactive)	> 100 µM (inactive)	> 100 µM (inactive)	> 100 µM (inactive)	–	> 100 µM (inactive)	> 100 µM (inactive)	–	–	–	–
C=C1C(=O)OC2/C=C(CO)/C=C\C3OC3(C)CC(OC(=O)/C(C)=C/COC(C)=O)C12 (stereo not drawn)	4.35 µM (inactive)	13.4 µM (inactive)	3.75 µM (inactive)	1.85 µM (inactive)	0.34 µM (active)	3.99 µM (inactive)	7.43 µM (inactive)	5.16 µM (inactive)	3.78 µM (inactive)	1.97 µM (inactive)	1.6 µM (inactive)	11.9 µM (inactive)	7.8 µM (inactive)	2.76 µM (inactive)	2.3 µM (inactive)	3.95 µM (inactive)	3.97 µM (inactive)	2 µM (inactive)	1.57 µM (inactive)	2.65 µM (inactive)
Clc1ccc(-c2c(C3=NCCN3)nnn2-c2ccccc2)cc1	> 100 µM (inactive)	> 100 µM (inactive)	51.2 µM (inactive)	> 100 µM (inactive)	> 100 µM (inactive)	> 100 µM (inactive)	> 100 µM (inactive)	51.8 µM (inactive)	> 100 µM (inactive)	> 100 µM (inactive)	40.1 µM (inactive)	> 100 µM (inactive)	> 100 µM (inactive)	> 100 µM (inactive)	> 100 µM (inactive)	> 100 µM (inactive)	–	–	–	–
CC(=O)OC1C(O)C(C)OC(OC(=O)C2CCC3C(C2)OC2(CC(OC(=O)/C=C/c4ccccc4)C(C)CO2)C32CO2)C1OC1OC(C)C(O)C(O)C1O (stereo not drawn)	0.0371 µM (active)	0.0373 µM (active)	0.0325 µM (active)	0.0644 µM (active)	0.0336 µM (active)	0.0325 µM (active)	0.0702 µM (active)	–	0.0417 µM (active)	–	0.0341 µM (active)	0.118 µM (active)	0.0378 µM (active)	2.08 µM (inactive)	–	0.04 µM (active)	21.7 µM (inactive)	–	–	–
O=C(Nc1cccc2ccccc12)Oc1ccccc1C1CCCCC1	19.9 µM (inactive)	18.5 µM (inactive)	18.2 µM (inactive)	15 µM (inactive)	27.2 µM (inactive)	16.3 µM (inactive)	17.6 µM (inactive)	23 µM (inactive)	22.6 µM (inactive)	–	> 10 µM (inactive)	21.4 µM (inactive)	23 µM (inactive)	–	18.1 µM (inactive)	13.4 µM (inactive)	–	–	–	–
Cc1nc2c(sc(=S)n2-c2ccccc2)c2nc3ccccc3n12	> 100 µM (inactive)	> 100 µM (inactive)	> 100 µM (inactive)	> 100 µM (inactive)	> 100 µM (inactive)	> 100 µM (inactive)	> 10 µM (inactive)	> 100 µM (inactive)	> 100 µM (inactive)	> 100 µM (inactive)	> 100 µM (inactive)	–	> 100 µM (inactive)	> 100 µM (inactive)	> 100 µM (inactive)	> 100 µM (inactive)	–	–	–	–
C=C1C(=O)OC2C=C(C)CC3C=C(CCC=C(C)CCC12)C(=O)O3 (stereo not drawn)	65.9 µM (inactive)	58.7 µM (inactive)	53.3 µM (inactive)	31.3 µM (inactive)	15.7 µM (inactive)	72.3 µM (inactive)	73.1 µM (inactive)	–	62.4 µM (inactive)	–	53.1 µM (inactive)	99.3 µM (inactive)	48 µM (inactive)	54.7 µM (inactive)	–	65 µM (inactive)	62.8 µM (inactive)	–	–	–
